Assay [1] deals with human Orexin type 2 receptors (Homo sapiens (Human), UniProt O43614). In words: Scintillation Proximity Assay (SPA) binding assay, [3H]EMPA displacement, HEK-hOX2 membranes. How it is done: Scintillation Proximity Assay (SPA) Binding Assays
CHO cells stably transfected with human Orexin type 1 receptors (CHO-hOX1) or HEK-293 cells transiently transfected with human Orexin type 2 receptors (HEK-hOX2) were collected after 16 h induction with 5 mM sodium butyrate. The cell pellets were re-suspended, homogenized in 15 mM Tris/HCl pH=7.5, 1 mM EGTA, 0.3 mM EDTA, 2 mM MgCl2, protease inhibitors and centrifuged at 40,000 g (20 min, 4° C.). After re-suspension, homogenization and centrifugation as above, the final pellets were re-suspended in 75 mM Tris/HCl pH=7.5, 1 mM EGTA, 0.3 mM EDTA, 12.5 mM MgCl2, 250 mM Sucrose, protease inhibitors, divided into aliquots and frozen down at −80° C.
CHO-hOX1 cell membranes (6 μg ml^−1) or HEK-hOX2 membranes (8 μg ml^−1) were pre-coupled with 1.0 mg ml^−1 of Wheatgerm Agglutinin-coated Yttrium Silicate (YSi-WGA) SPA beads (Perkin Elmer) in buffer containing 25 mM HEPES pH=7.4, 1 mM CaCl2), 5 mM MgCl2, 0.01% (w/v) BSA, 0.02% (w/v) Pluronic F-127 by shaking at room temperature for 2.5-3 h.
(§1) The binding was performed in a final volume of 200 μl. 100 μl of hOX1 or hOX2 beads-membranes suspension were added to 100 μl of [^3H]SB-674042 or [^3H]EMPA solutions (radioligand concentration 2 nM final in the assay), into the 96-well Isoplates containing the 2 μl/well of compounds to be tested. Nonspecific binding was measured in the presence of 1 μM Almorexant. Assay plates were then incubated at room temperature for 3 h before being counted in a Microbeta scintillation counter (PerkinElmer).
Data were analysed by non-linear regression analysis using XLfit Software.
A general note: Scintillation proximity formats need no separation of bound from free tracer.

In assay [2] the target is human Orexin type 1 receptors (Homo sapiens (Human), UniProt O43613). The assay can be described thus: Scintillation Proximity Assay (SPA) binding assay, [3H]SB-674042 displacement, CHO-hOX1 membranes. How it is done: as §1, with “Scintillation Proximity Assay (SPA) Binding Assays CHO cells stably transfected with human Orexin type 1 receptors (CHO-hOX1) or HEK-293 cells transiently transfected with human Orexin type 2 receptors (HEK-hOX2) were collected after 16 h induction with 5 mM sodium butyrate. […] The” for “The”, “(PerkinElmer). Data were analysed by non-linear regression analysis using XLfit Software.” for “(PerkinElmer).”
Chain of human Orexin type 1 receptors (O43613 whole entry): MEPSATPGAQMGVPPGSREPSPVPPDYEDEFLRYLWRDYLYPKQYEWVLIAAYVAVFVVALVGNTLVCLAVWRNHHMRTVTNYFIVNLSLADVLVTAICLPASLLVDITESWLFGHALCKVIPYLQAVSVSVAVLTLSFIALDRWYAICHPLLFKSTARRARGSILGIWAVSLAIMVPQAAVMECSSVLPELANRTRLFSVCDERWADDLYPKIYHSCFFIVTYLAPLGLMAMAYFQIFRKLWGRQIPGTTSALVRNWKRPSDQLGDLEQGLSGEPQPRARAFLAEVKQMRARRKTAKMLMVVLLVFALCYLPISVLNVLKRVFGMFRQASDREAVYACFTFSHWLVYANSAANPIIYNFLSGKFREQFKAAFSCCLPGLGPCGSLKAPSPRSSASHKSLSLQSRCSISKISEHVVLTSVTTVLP

Molecules are shown by their SMILES.

Chain of human Orexin type 2 receptors (O43614 whole entry): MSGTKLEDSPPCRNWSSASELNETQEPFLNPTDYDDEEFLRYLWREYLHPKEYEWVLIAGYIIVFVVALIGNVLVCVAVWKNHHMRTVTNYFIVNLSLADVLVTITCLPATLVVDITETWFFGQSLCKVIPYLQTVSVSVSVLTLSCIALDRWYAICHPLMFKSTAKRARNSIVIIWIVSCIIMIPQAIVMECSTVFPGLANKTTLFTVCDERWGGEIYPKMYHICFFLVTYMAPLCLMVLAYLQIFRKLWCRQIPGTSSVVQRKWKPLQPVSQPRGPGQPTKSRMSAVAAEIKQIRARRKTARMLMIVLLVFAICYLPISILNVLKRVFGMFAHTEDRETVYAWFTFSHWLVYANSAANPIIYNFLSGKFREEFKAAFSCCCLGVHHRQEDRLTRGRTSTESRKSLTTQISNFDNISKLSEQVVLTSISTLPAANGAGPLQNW

On to `Cc1ccc(-c2nccs2)c(C(=O)N2C3CC(C3)[C@@H](C)C2COc2ccc(F)cc2)n1` (mixture of isomers) [Example 96, cis-3-[(4-fluorophenoxy)methyl]-4-methyl-2-[6-methyl-3-(1,3-thiazol-2-yl)pyridine-2-carbonyl]-2-azabicyclo[3.1.1]heptane], for which the “OX2 pKi (SPA binding)” value in assay [1] (Table 1, [3H]EMPA 2 nM) stood at 6.88. The “OX1 pKi (SPA binding)” value in assay [2] (Table 1, [3H]SB-674042 2 nM) amounted to 8.18.
On to `Cc1ccc(-c2nccs2)c(C(=O)N2C3CC(C3)[C@@H](C)C2COc2ccc(F)cc2)c1` (mixture of isomers) [Example 98, cis-3-[(4-fluorophenoxy)methyl]-4-methyl-2-[5-methyl-2-(1,3-thiazol-2-yl)benzoyl]-2-azabicyclo[3.1.1]heptane], for which, in assay [1] (Table 1, [3H]EMPA 2 nM), the “OX2 pKi (SPA binding)” value is on record as 6.75. The “OX1 pKi (SPA binding)” value in assay [2] (Table 1, [3H]SB-674042 2 nM) came out at 7.86.
For `Cc1ccc(OCC2[C@H](C)C3CC(C3)N2C(=O)c2nc(C)ccc2-n2nccn2)nc1` (mixture of isomers) [Example 100, cis-4-methyl-2-[6-methyl-3-(2H-1,2,3-triazol-2-yl)pyridine-2-carbonyl]-3-{[(5-methylpyridin-2-yl)oxy]methyl}-2-azabicyclo[3.1.1]heptane], the “OX2 pKi (SPA binding)” value in assay [1] (Table 1, [3H]EMPA 2 nM) is reported as 5.96. Besides, the “OX1 pKi (SPA binding)” value in assay [2] (Table 1, [3H]SB-674042 2 nM) worked out at 7.03.
`Cc1ccc(-c2nccs2)c(C(=O)N2C3CC(C3)[C@H](C)C2COc2ccc(F)cc2)c1` (mixture of isomers) [Example 101, trans-3-[(4-fluorophenoxy)methyl]-4-methyl-2-[5-methyl-2-(1,3-thiazol-2-yl)benzoyl]-2-azabicyclo[3.1.1]heptane]: in assay [1] (Table 1, [3H]EMPA 2 nM), the “OX2 pKi (SPA binding)” value is on record as 6.15. Further, the “OX1 pKi (SPA binding)” value in assay [2] (Table 1, [3H]SB-674042 2 nM) is 8.02.
On to `Cc1ccc(-c2nccs2)c(C(=O)N2C3CC(C3)[C@H](C)C2COc2ccc(F)cc2)n1` (mixture of isomers) [Example 106, trans-3-[(4-fluorophenoxy)methyl]-4-methyl-2-[6-methyl-3-(1,3-thiazol-2-yl)pyridine-2-carbonyl]-2-azabicyclo[3.1.1]heptane], for which the “OX2 pKi (SPA binding)” value in assay [1] (Table 1, [3H]EMPA 2 nM) is reported as 6.12. For the same molecule, in assay [2] (Table 1, [3H]SB-674042 2 nM), the “OX1 pKi (SPA binding)” value turned out to be 8.16.
As for `Cc1ccc(-n2nccn2)c(C(=O)N2C3CC(C3)[C@H](C)C2COc2ccc(F)c(F)c2)n1` (mixture of isomers) [Example 111, trans-3-[(3,4-difluorophenoxy)methyl]-4-methyl-2-[6-methyl-3-(2H-1,2,3-triazol-2-yl)pyridine-2-carbonyl]-2-azabicyclo[3.1.1]heptane], the “OX2 pKi (SPA binding)” value in assay [1] (Table 1, [3H]EMPA 2 nM) is recorded as 5.99. For the same molecule, in assay [2] (Table 1, [3H]SB-674042 2 nM), the “OX1 pKi (SPA binding)” value worked out at 7.53.
Regarding `Cc1nc(C(=O)N2C3CC(C3)[C@H](C)C2COc2ccc(F)cc2)c(-c2ncccn2)s1` (mixture of isomers) [Example 113, trans-3-[(4-fluorophenoxy)methyl]-4-methyl-2-[2-methyl-5-(pyrimidin-2-yl)-1,3-thiazole-4-carbonyl]-2-azabicyclo[3.1.1]heptane], the “OX2 pKi (SPA binding)” value in assay [1] (Table 2, [3H]EMPA 2 nM) came out at 5.72. Further, the “OX1 pKi (SPA binding)” value in assay [2] (Table 2, [3H]SB-674042 2 nM) is listed as 8.21.
With `Cc1nc(C(=O)N2C3CC(C3)[C@H](C)C2COc2ccc(F)cn2)c(-c2ncccn2)s1` (mixture of isomers) [Example 116, trans-3-{[(5-fluoropyridin-2-yl)oxy]methyl}-4-methyl-2-[2-methyl-5-(pyrimidin-2-yl)-1,3-thiazole-4-carbonyl]-2-azabicyclo[3.1.1]heptane], the “OX2 pKi (SPA binding)” value in assay [1] (Table 2, [3H]EMPA 2 nM) came to 5.26. Moreover, in assay [2] (Table 2, [3H]SB-674042 2 nM), the “OX1 pKi (SPA binding)” value came out at 7.32.
Turning to `Cc1nc(C(=O)N2C3CC(C3)[C@H](C)C2COc2ccc(F)cn2)c(-c2ccccn2)s1` (mixture of isomers) [Example 117, trans-3-{[(5-fluoropyridin-2-yl)oxy]methyl}-4-methyl-2-[2-methyl-5-(pyridin-2-yl)-1,3-thiazole-4-carbonyl]-2-azabicyclo[3.1.1]heptane], the “OX2 pKi (SPA binding)” value in assay [1] (Table 2, [3H]EMPA 2 nM) is 5.47. Further, the “OX1 pKi (SPA binding)” value in assay [2] (Table 2, [3H]SB-674042 2 nM) turned out to be 7.13.
Regarding `Cc1ccc(-c2ncccn2)c(C(=O)N2C3CC(C3)[C@H](C)C2COc2ccc(Cl)cn2)n1` (mixture of isomers) [Example 118, trans-3-{[(5-chloropyridin-2-yl)oxy]methyl}-4-methyl-2-[6-methyl-3-(pyrimidin-2-yl)pyridine-2-carbonyl]-2-azabicyclo[3.1.1]heptane], the “OX2 pKi (SPA binding)” value in assay [1] (Table 2, [3H]EMPA 2 nM) amounted to 5.75. Moreover, the “OX1 pKi (SPA binding)” value in assay [2] (Table 2, [3H]SB-674042 2 nM) was found to be 7.39.
In the case of `Cc1nc(C(=O)N2C3CC(C3)[C@H](C)C2COc2ccc(F)cc2)c(-c2cnccn2)s1` (mixture of isomers) [Example 121, trans-3-[(4-fluorophenoxy)methyl]-4-methyl-2-[2-methyl-5-(pyrazin-2-yl)-1,3-thiazole-4-carbonyl]-2-azabicyclo[3.1.1]heptane], the “OX2 pKi (SPA binding)” value in assay [1] (Table 2, [3H]EMPA 2 nM) is 5.54. The “OX1 pKi (SPA binding)” value in assay [2] (Table 2, [3H]SB-674042 2 nM) came to 7.36.
In the case of `Cc1ccc(-n2cccn2)c(C(=O)N2C3CC(C3)[C@H](C)C2COc2ccc(F)cc2)n1` (mixture of isomers) [Example 122, trans-3-[(4-fluorophenoxy)methyl]-4-methyl-2-[6-methyl-3-(1H-pyrazol-1-yl)pyridine-2-carbonyl]-2-azabicyclo[3.1.1]heptane], the “OX2 pKi (SPA binding)” value in assay [1] (Table 2, [3H]EMPA 2 nM) is given as 5.4. Further, the “OX1 pKi (SPA binding)” value in assay [2] (Table 2, [3H]SB-674042 2 nM) worked out at 7.22.
As for `Cc1nc(C(=O)N2C3CC(C3)[C@H](C)C2COc2ccc(F)cc2)c(-c2ccccn2)s1` (mixture of isomers) [Example 123, trans-3-[(4-fluorophenoxy)methyl]-4-methyl-2-[2-methyl-5-(pyridin-2-yl)-1,3-thiazole-4-carbonyl]-2-azabicyclo[3.1.1]heptane], the “OX2 pKi (SPA binding)” value in assay [1] (Table 2, [3H]EMPA 2 nM) is recorded as 6.12. In addition, the “OX1 pKi (SPA binding)” value in assay [2] (Table 2, [3H]SB-674042 2 nM) was 8.02.
Take `Cc1nc(C(=O)N2C3CC(C3)[C@H](C)C2COc2ccc(F)cc2)c(-n2nccn2)s1` (mixture of isomers) [Example 126, trans-3-[(4-fluorophenoxy)methyl]-4-methyl-2-[2-methyl-5-(2H-1,2,3-triazol-2-yl)-1,3-thiazole-4-carbonyl]-2-azabicyclo[3.1.1]heptane]: in assay [1] (Table 2, [3H]EMPA 2 nM), the “OX2 pKi (SPA binding)” value came out at 5.7. The “OX1 pKi (SPA binding)” value in assay [2] (Table 2, [3H]SB-674042 2 nM) was 7.39.
As to `Cc1ccc(-n2ncc(C)n2)c(C(=O)N2C3CC(C3)[C@H](C)C2COc2ccc(F)cc2)n1` (mixture of isomers) [Example 127, trans-3-[(4-fluorophenoxy)methyl]-4-methyl-2-[6-methyl-3-(4-methyl-2H-1,2,3-triazol-2-yl)pyridine-2-carbonyl]-2-azabicyclo[3.1.1]heptane], the “OX2 pKi (SPA binding)” value in assay [1] (Table 2, [3H]EMPA 2 nM) was 6.1. Further, in assay [2] (Table 2, [3H]SB-674042 2 nM), the “OX1 pKi (SPA binding)” value amounted to 7.91.
Turning to `C[C@H]1C2CC(C2)N(C(=O)c2cc(F)ccc2-n2nccn2)C1COc1ccc(F)cc1` (mixture of isomers) [Example 128, trans-2-[5-fluoro-2-(2H-1,2,3-triazol-2-yl)benzoyl]-3-{(4-fluorophenoxy)methyl]-4-methyl-2-azabicyclo[3.1.1]heptane], the “OX2 pKi (SPA binding)” value in assay [1] (Table 2, [3H]EMPA 2 nM) is 5.61. Moreover, the “OX1 pKi (SPA binding)” value in assay [2] (Table 2, [3H]SB-674042 2 nM) was 6.85.
On to `Cc1ccc(-n2nccn2)c(C(=O)N2C3CC(C3)[C@@H](C)C2COc2ccc(C(F)(F)F)cn2)n1` (mixture of isomers) [Example 129, cis-4-methyl-2-[6-methyl-3-(2H-1,2,3-triazol-2-yl)pyridine-2-carbonyl]-3-({[5-(trifluoromethyl)pyridin-2-yl]oxy}methyl)-2-azabicyclo[3.1.1]heptane], for which, in assay [1] (Table 2, [3H]EMPA 2 nM), the “OX2 pKi (SPA binding)” value stood at 5.14. In addition, in assay [2] (Table 2, [3H]SB-674042 2 nM), the “OX1 pKi (SPA binding)” value stood at 6.81.
For the molecule `Cc1ccc(-n2nccn2)c(C(=O)N2C3CC(C3)[C@@H](C)C2COc2ccc(F)cn2)n1` (mixture of isomers) [Example 130, cis-3-{[(5-fluoropyridin-2-yl)oxy]methyl}-4-methyl-2-[6-methyl-3-(2H-1,2,3-triazol-2-yl)pyridine-2-carbonyl]-2-azabicyclo[3.1.1]heptane], the “OX2 pKi (SPA binding)” value in assay [1] (Table 2, [3H]EMPA 2 nM) came out at 6.08. Further, the “OX1 pKi (SPA binding)” value in assay [2] (Table 2, [3H]SB-674042 2 nM) came to 6.9.
On to `O=C(c1nc(Cl)sc1-c1ccccc1)N1C(COc2ccc(F)cc2)CC2CC1C2` (stereo not shown) [Example 51], for which, in assay [2] (Table 1, [3H]SB-674042 2 nM), the “OX1 pKi (SPA binding)” value stood at 7.22.

For the origin of these results see patent publication US11660293B2, “Substituted 2-azabicyclo[3.1.1]heptane and 2-azabicyclo[3.2.1]octane derivatives as orexin receptor antagonists” (Chronos Therapeutics Limited, priority 2017, dated 2023).
